# Data reported in PMC12226733, “Evolution of iGluR ligand specificity, polyamine regulation, and ion selectivity inferred from a placozoan epsilon receptor” (Communications Biology, 2025).
# Where a chain is given by its changes, count along the chain named. Where two headings read alike, the source gives them in different places.
# Columns and labels:
# [1] = tested on: GluE1αA D646A variant
# Source text: (§1) The cDNA of the T. adhaerens GluE1αA receptor was cloned into the mammalian expression vector pIRES2-EGFP, using a 5’ nested primer that inserted a mammalian consensus Kozak sequence of […] (Supplementary Table 5). Several mutants/variants of this receptor where also prepared via site directed mutagenesis using standard procedures and primers listed in Supplementary Table 5. For electrophysiological comparisons, we commissioned GenScript (USA) to synthesize the cDNA of the human GluA2 […] receptor (NCBI accession number NP_001077088.2), which was cloned into the pIRES2-EGFP vector with a Kozak sequence flanking the start codon and restriction enzymes SalI and BamHI at the 5’ and 3’ ends of the cDNA, respectively. Receptor cDNAs in the various pIRES2 constructs were transfected into Chinese Hamster Ovary-K1 (CHO-K1; Sigma) cells cultured in Dulbecco’s Modified Eagle Medium Nutrient Mixture F-12 (DMEM/F12) supplemented with 10% Fetal Bovine Serum (FBS) and 1% penicillin-streptomycin at 37°C. Transfections were done with 2 μg of plasmid vector using the transfecting reagent PolyJet^TM (SignaGen Laboratories, USA) according to the manufacturer’s instructions and plated onto glass coverslips in 35 mm dishes the next day. Transfected cells were incubated at 28°C for 2 to 4 days, then coverslips were transferred to a new 60 mm dish with 5 mL of external recording solution. […] Agonists and pharmacological compounds used in this study were dissolved in corresponding external solutions. […] Patch pipettes were pulled using a P-1000 micropipette puller (Sutter, USA), from thick-walled borosilicate tubing (1.5 and 0.86 outer and inner diameter, respectively), to a resistance of between 1 and 6 megaohms.
# [2] = target: T1, GluE1αA wildtype receptor (Trichoplax adhaerens, UniProt B3SAW0); details: wt
# T1 sequence (B3SAW0 1-341): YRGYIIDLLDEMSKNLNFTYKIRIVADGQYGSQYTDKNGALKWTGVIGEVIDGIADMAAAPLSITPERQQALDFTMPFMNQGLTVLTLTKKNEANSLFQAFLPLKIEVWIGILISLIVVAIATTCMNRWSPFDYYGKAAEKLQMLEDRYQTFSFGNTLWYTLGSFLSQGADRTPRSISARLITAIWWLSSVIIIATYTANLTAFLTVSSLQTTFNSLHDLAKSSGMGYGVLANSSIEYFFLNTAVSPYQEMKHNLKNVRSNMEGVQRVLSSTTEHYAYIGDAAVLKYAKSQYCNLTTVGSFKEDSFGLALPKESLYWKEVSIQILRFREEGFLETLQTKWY
# Source text: as §1
# [3] = target: T2, GluE1αA S642Q (Trichoplax adhaerens, UniProt B3SAW0, S167Q); assay type: cell-based; details: […]; for normalized conductance (G-V, Figure 5g), Avg: Na vs Na; for I-V current, Na vs Na, Avg of recordings: Figure 5b
# T2 sequence (B3SAW0 1-341 S167Q): T1 sequence (B3SAW0 1-341) with S167Q
# [4] = tested on: GluE1αA D646A; assay type: cell-based, Trichoplax adhaerens; details: […]; for normalized conductance (G-V, Figure 5g), Avg: Na vs Na; for I-V current, Na vs Na, Avg of recordings: Figure 5b
# [5] = tested on: GluE1αA wildtype; assay type: cell-based, Trichoplax adhaerens; details: […]; for normalized conductance (G-V, Figure 5g), Avg: Na vs Na; for I-V current, Na vs Na, Avg of recordings: Figure 5b
structure (smiles),measurement,setting,value
NCCCNCCCCNCCCN [spermine],reduction in peak inward current (percent block),[1]; 200 µM extracellular spermine,14.0 ± 1.1%
same,reduction in peak inward current,[1]; 1000 µM extracellular spermine,40.2 ± 3.4%
same,"normalized current elicited by 3 mM glycine with co-applied spermine, Avg",[1]; spermine 200 µM extracellular,0.8603
same,"normalized current elicited by 3 mM glycine with co-applied spermine, Avg",[1]; spermine 1000 µM extracellular,0.5979
same,"normalized current elicited by 3 mM glycine with co-applied spermine, Avg",[2]; spermine 200 µM extracellular,0.8673
same,"normalized current elicited by 3 mM glycine with co-applied spermine, Avg",[2]; spermine 1000 µM extracellular,0.8213
[Na+] [Na],"normalized conductance (G-V, Figure 5g), Avg",[3]; Vm 0.00,0.20
same,"normalized conductance (G-V, Figure 5g), Avg",[3]; Vm 20.00,0.25
same,"normalized conductance (G-V, Figure 5g), Avg",[3]; Vm 40.00,0.52
same,"normalized conductance (G-V, Figure 5g), Avg",[3]; Vm 60.00,0.72
same,"normalized conductance (G-V, Figure 5g), Avg",[3]; Vm 80.00,0.79
same,"normalized conductance (G-V, Figure 5g), Avg",[3]; Vm -20.00,0.51
same,"normalized conductance (G-V, Figure 5g), Avg",[3]; Vm -40.00,0.84
same,"normalized conductance (G-V, Figure 5g), Avg",[3]; Vm -60.00,0.93
same,"normalized conductance (G-V, Figure 5g), Avg",[3]; Vm -80.00,1.00
same,"I-V current, Na vs Na, Avg of recordings",[3]; Vm 0.00,0.0017
same,"I-V current, Na vs Na, Avg of recordings",[3]; Vm 20.00,0.0327
same,"I-V current, Na vs Na, Avg of recordings",[3]; Vm 40.00,0.13
same,"I-V current, Na vs Na, Avg of recordings",[3]; Vm 60.00,0.30
same,"I-V current, Na vs Na, Avg of recordings",[3]; Vm 80.00,0.51
same,"I-V current, Na vs Na, Avg of recordings",[3]; Vm -20.00,-0.07
same,"I-V current, Na vs Na, Avg of recordings",[3]; Vm -40.00,-0.26
same,"I-V current, Na vs Na, Avg of recordings",[3]; Vm -60.00,-0.50
same,"I-V current, Na vs Na, Avg of recordings",[3]; Vm -80.00,-0.73
same,"normalized conductance (G-V, Figure 5g), Avg",[4]; Vm 0.00,0.81
same,"normalized conductance (G-V, Figure 5g), Avg",[4]; Vm 20.00,0.80
same,"normalized conductance (G-V, Figure 5g), Avg",[4]; Vm 40.00,0.77
same,"normalized conductance (G-V, Figure 5g), Avg",[4]; Vm 60.00,0.74
same,"normalized conductance (G-V, Figure 5g), Avg",[4]; Vm 80.00,0.78
same,"normalized conductance (G-V, Figure 5g), Avg",[4]; Vm -20.00,0.83
same,"normalized conductance (G-V, Figure 5g), Avg",[4]; Vm -40.00,0.84
same,"normalized conductance (G-V, Figure 5g), Avg",[4]; Vm -60.00,0.88
same,"normalized conductance (G-V, Figure 5g), Avg",[4]; Vm -80.00,1.00
same,"I-V current, Na vs Na, Avg of recordings",[4]; Vm 0.00,-0.000461
same,"I-V current, Na vs Na, Avg of recordings",[4]; Vm 20.00,0.18
same,"I-V current, Na vs Na, Avg of recordings",[4]; Vm 40.00,0.36
same,"I-V current, Na vs Na, Avg of recordings",[4]; Vm 60.00,0.53
same,"I-V current, Na vs Na, Avg of recordings",[4]; Vm 80.00,0.69
same,"I-V current, Na vs Na, Avg of recordings",[4]; Vm -20.00,-0.18
same,"I-V current, Na vs Na, Avg of recordings",[4]; Vm -40.00,-0.37
same,"I-V current, Na vs Na, Avg of recordings",[4]; Vm -60.00,-0.56
same,"I-V current, Na vs Na, Avg of recordings",[4]; Vm -80.00,-0.76
same,"normalized conductance (G-V, Figure 5g), Avg",[5]; Vm 0.00,0.54
same,"normalized conductance (G-V, Figure 5g), Avg",[5]; Vm 20.00,0.50
same,"normalized conductance (G-V, Figure 5g), Avg",[5]; Vm 40.00,0.58
same,"normalized conductance (G-V, Figure 5g), Avg",[5]; Vm 60.00,0.65
same,"normalized conductance (G-V, Figure 5g), Avg",[5]; Vm 80.00,0.67
same,"normalized conductance (G-V, Figure 5g), Avg",[5]; Vm -20.00,0.70
same,"normalized conductance (G-V, Figure 5g), Avg",[5]; Vm -40.00,0.83
same,"normalized conductance (G-V, Figure 5g), Avg",[5]; Vm -60.00,0.93
same,"normalized conductance (G-V, Figure 5g), Avg",[5]; Vm -80.00,1.00
same,"I-V current, Na vs Na, Avg of recordings",[5]; Vm 0.00,-0.0053
same,"I-V current, Na vs Na, Avg of recordings",[5]; Vm 20.00,0.11
same,"I-V current, Na vs Na, Avg of recordings",[5]; Vm 40.00,0.23
same,"I-V current, Na vs Na, Avg of recordings",[5]; Vm 60.00,0.38
same,"I-V current, Na vs Na, Avg of recordings",[5]; Vm 80.00,0.54
same,"I-V current, Na vs Na, Avg of recordings",[5]; Vm -20.00,-0.15
same,"I-V current, Na vs Na, Avg of recordings",[5]; Vm -40.00,-0.34
same,"I-V current, Na vs Na, Avg of recordings",[5]; Vm -60.00,-0.54
same,"I-V current, Na vs Na, Avg of recordings",[5]; Vm -80.00,-0.77
